Laboratory results as given in PMC8302504, “Efficacy of Fenfluramine and Norfenfluramine Enantiomers and Various Antiepileptic Drugs in a Zebrafish Model of Dravet Syndrome” (Neurochemical Research, 2021).
Entries after “also recorded” stand apart in the source; their conditions may differ.

Legend:
WT zebrafish larvae = assay: Toxicity evaluation: maximum tolerated concentration (MTC); type: in vivo, Danio rerio; settings: WT larvae 6 dpf, 22 h incubation
Experimental: To evaluate the maximum tolerated concentration (MTC) of the individual compounds, a dozen of WT zebrafish larvae (6 dpf) were individually incubated in single wells of a 96-well plate, and treated with two-fold serial dilutions of the compounds. After 22 h incubation under standard conditions (28 °C, 14/10 light/dark cycle), larvae were individually examined for their touch response, posture, edema, signs of necrosis, morphology, heartbeat rate, and swim bladder condition under the microscope.

[1] = test system: zebrafish scn1Lab−/− mutant larvae; assay: Locomotor activity measurement (behavioral assay) in the zebrafish DS model; type: in vivo, Danio rerio; settings: 22 h; for effect on epileptiform (hyper-)locomotor activity: single treatment at MTC, Fig. 2A
Experimental: (§1) WT and homozygous zebrafish larvae (scn1Lab^−/− mutants) (6 dpf) were individually positioned in single wells of a 96-well plate, and incubated in 100 μL VHC or VHC supplemented with compound or combined compounds for 22 h at 28 °C on a 14/10 h light/dark cycle. Then, the plates were placed immediately in an enclosed tracking device (ZebraBox Viewpoint, France), followed by a 30 min chamber habituation and 10 min recording. Locomotor activity over the total tracking period of 10 min was quantified by ZebraLab software (Software Viewpoint, France) using the lardist parameter (total distance in large movements) and 150 bkg (background) as a threshold, as reported previously by our group. For “small/large movement” and “inact/small movement”, a threshold was used of 6.4 and 3.3, respectively. Data were pooled from three or four independent experiments, with at least five larvae for each treatment and 20–30 larvae for each experimental condition, and expressed as “cm” per 100 s.

[2] = test system: zebrafish scn1Lab−/− mutant larvae; assay: Noninvasive local field potential (LFP) recordings from the optic tectum; type: in vivo, Danio rerio; settings: 22 h; for effect on cumulative duration of epileptiform events: Fig. 2B; for effect on frequency of epileptiform events: Fig. 2C
Experimental: (§2) WT and homozygous zebrafish larvae (scn1Lab^−/− mutants) (6 dpf) were treated as described above. After incubation, larvae were immobilized in 2% low-melting-point agarose (Invitrogen) at room temperature (RT) and the epileptiform activities were measured by noninvasive local field potential (LFP) recording from the skin above the optic tectum (midbrain). The single glass electrode filled with artificial cerebrospinal fluid (ACSF) (124 mM NaCl, 2 mM KCl, 2 mM MgSO4, 2 mM CaCl2, 1.25 mM KH2PO4, 26 mM NaHCO3, and 10 mM glucose) was positioned on the skin above the optic tectum. Each recording lasted for 10 min. Epileptiform activity was quantified by using Clampfit 10.2 software (Molecular Devices Corporation, USA60), as reported previously by our group.

[3] = test system: zebrafish scn1Lab−/− mutant model of DS; assay: Overall antiepileptic activity in the zebrafish scn1Lab−/− mutant model (locomotor and LFP read-outs together); type: in vivo, Danio rerio; settings: 22 h incubation
Experimental: as §1, §2

[4] = Compound concentration (uptake) in larval zebrafish heads by LC-MS; type: in vivo, Danio rerio; settings: immersion at MTC for 30 min, 4 h and 22 h, Fig. 4
Experimental: WT and homozygous zebrafish larvae (scn1Lab^−/− mutants) (6 dpf) were treated as described above. After incubation with compounds, larvae were washed and euthanized by exposure to cold Milli-Q water. Then, the heads of larvae were carefully separated under the microscope, and five heads were transferred collectively into one 1.5 mL Eppendorf tube with acid-washed glass beads (diameter: […], Sigma Aldrich) and 275 µL extraction medium (HPLC grade methanol, Sigma Aldrich). Next, the samples were homogenized by 10 min of ultrasonication (Diagenode Bioruptor Plus, Belgium) at 4 °C. The overall ultrasonication process encompassed 10 cycles of 30 s with pauses of 30 s in-between with high energy input. […]
Quantification was performed through the use of a calibration curve created for each compound separately in blank matrix, which was derived from a pooled set of blank fish heads (n = 40). […] Ranges consisted of at least 5 concentrations, each of which was analyzed in replicate (n = 5). […]
The mean head weight (± S.D.) of a 6 dpf and 7 dpf zebrafish larva was 192 ± 10 µg and 196 ± 13 µg, respectively, as measured by weighing three batches of 50 fresh heads after removing excess water with filter paper. The final uptake was calculated according to the method reported by Copmans et al., and expressed as amount/head weight (µg/g).

dopamine (DA) release = test system: dopamine (DA) release; set-up: method as in earlier work; settings: 34 (Rothman et al.); cited from earlier work
[5] = test system: norepinephrine (NE) release; set-up: method as in earlier work; settings: 34 (Rothman et al.); cited from earlier work
[6] = test system: 5-HT transporter proteins; set-up: method as in earlier work; settings: 34 (Rothman et al.); read-out: EC50 values for release, 5-HT; cited from earlier work
dopamine (DA) uptake = target: dopamine (DA) uptake; set-up: method as in earlier work; settings: 34 (Rothman et al.); read-out: Ki values for uptake inhibition, DA; cited from earlier work
[7] = target: norepinephrine (NE) uptake; set-up: method as in earlier work; settings: 34 (Rothman et al.); read-out: Ki values for uptake inhibition, NE; cited from earlier work
serotonin uptake = target: serotonin uptake; set-up: method as in earlier work; settings: 34 (Rothman et al.); read-out: Ki values for uptake inhibition, 5-HT; cited from earlier work
5-HT2A = test system: 5-HT2A; set-up: method as in earlier work; settings: 34 (Rothman et al.); cited from earlier work
5-HT2B = test system: 5-HT2B; set-up: method as in earlier work; settings: 34 (Rothman et al.); cited from earlier work
5-HT2C = test system: 5-HT2C; set-up: method as in earlier work; settings: 34 (Rothman et al.); cited from earlier work
[8] = test system: DS zebrafish mutant model; set-up: method as in PMID 29335539; settings: cited from earlier work
[9] = VPA single treatment at 250 µM, Fig. 3

CC1(C)O[C@@H]2[C@@H](CO[C@@]3(COS(N)(=O)=O)OC(C)(C)O[C@@H]23)O1 [TPM, topiramate]
maximum tolerated concentration (MTC) (WT zebrafish larvae): 200 µM | effect on epileptiform (hyper-)locomotor activity [1]: significantly counteracted | effect on cumulative duration of epileptiform events ([2]; single treatment at MTC): decrease | effect on frequency of epileptiform events ([2]; single treatment at MTC): dramatically attenuated | antiepileptic activity in the model (overall) [3]: pronounced therapeutic activity

C[C@@H](N)Cc1cccc(C(F)(F)F)c1 [(−)-norFFA]
effect on frequency and cumulative duration of the epileptiform events ([2]; at least at MTC, Fig. 7): all compounds except for (−)-norFFA significantly reduced | antiepileptic activity in the model (overall) [3]: less conclusive | total uptake in larval heads (amount of compound/head weight) [4]: somewhat similar uptake | EC50 (dopamine (DA) release): > 10000 nM | EC50 [5]: 474 ± 40 nM | EC50 [6]: 287 ± 14 nM | Ki (dopamine (DA) uptake): 19200 nM | Ki [7]: 2050 ± 297 nM | Ki (serotonin uptake): 1180 ± 89 nM | Kact values for 5-HT2 receptor subtypes, 5-HT2A (5-HT2A): 1565 ± 190 nM | Kact values for 5-HT2 receptor subtypes, 5-HT2B (5-HT2B): 357 ± 105 nM | Kact values for 5-HT2 receptor subtypes, 5-HT2C (5-HT2C): 18 ± 3.5 nM

C=C(C)[C@@H]1CCC(C)=C[C@H]1c1c(O)cc(CCCCC)cc1O [CBD, cannabidiol]
maximum tolerated concentration (MTC) (WT zebrafish larvae): 6.25 µM | effect on epileptiform (hyper-)locomotor activity [1]: failed to rescue; also recorded: not active | effect on epileptiform brain discharges ([2]; single treatment at MTC): failed to rescue; also recorded: not active

CN1C(=O)CC(=O)N(c2ccccc2)c2cc(Cl)ccc21 [CLB, clobazam]
maximum tolerated concentration (MTC) (WT zebrafish larvae): 100 µM | effect on epileptiform (hyper-)locomotor activity [1]: failed to rescue | effect on epileptiform brain discharges ([2]; single treatment at MTC): failed to rescue | efficacy in the DS zebrafish mutant model [8]: ineffective

C[C@H](N)Cc1cccc(C(F)(F)F)c1 [(+)-norFFA]
antiepileptic activity in the model (overall) [3]: more consistent and concentration-dependent; also recorded: significant antiepileptic effects | total uptake in larval heads (amount of compound/head weight) [4]: somewhat similar uptake; also recorded: taken up less than the parent compound | EC50 (dopamine (DA) release): 924 ± 112 nM | EC50 [5]: 72.7 ± 5.4 nM | EC50 [6]: 59.3 ± 2.4 nM | Ki (dopamine (DA) uptake): 2310 ± 87 nM | Ki [7]: 205 ± 19 nM | Ki (serotonin uptake): 214 ± 9 nM | Kact values for 5-HT2 receptor subtypes, 5-HT2A (5-HT2A): 630 ± 141 nM | Kact values for 5-HT2 receptor subtypes, 5-HT2B (5-HT2B): 18.4 ± 5.3 nM | Kact values for 5-HT2 receptor subtypes, 5-HT2C (5-HT2C): 13 ± 2.4 nM

NC(=O)N1c2ccccc2C=Cc2ccccc21 [CBZ, carbamazepine]
maximum tolerated concentration (MTC) (WT zebrafish larvae): 50 µM | effect on epileptiform (hyper-)locomotor activity [1]: no inhibitory effects | effect on epileptiform brain discharges ([2]; single treatment at MTC): no inhibitory effects

CCNC(C)Cc1cccc(C(F)(F)F)c1 (racemic) [(±)-FFA, (±)-Fenfluramine]
maximum tolerated concentration (MTC) (WT zebrafish larvae): 50 µM | effect on locomotor activity ([1]; (±)-FFA single treatment at 3.13 µM, Fig. 3D): significant effect | effect on epileptiform (hyper-)locomotor activity [1]: significantly counteracted | effect on epileptiform brain discharges ([2]; (±)-FFA single treatment at 3.13 µM, Fig. 3E, F): not on the epileptiform brain discharges | effect on cumulative duration of epileptiform events ([2]; single treatment at MTC): decrease | effect on frequency of epileptiform events ([2]; single treatment at MTC): dramatically attenuated

CCCC(CCC)C(=O)O [VPA, Valproate]
maximum tolerated concentration (MTC) (WT zebrafish larvae): 1000 µM | effect on locomotor activity [1, 9]: limited and statistically non-significant effect; also recorded: not active | effect on epileptiform (hyper-)locomotor activity [1]: complete rescue | effect on epileptiform brain discharges [2, 9]: limited and statistically non-significant effect; also recorded: not active | effect on cumulative duration of epileptiform events ([2]; single treatment at MTC): complete rescue | effect on frequency of epileptiform events ([2]; single treatment at MTC): complete rescue

CC(C)(C)C(O)/C=C/c1ccc2c(c1)OCO2 (centres unmarked) [STP, stiripentol]
maximum tolerated concentration (MTC) (WT zebrafish larvae): 50 µM | effect on epileptiform (hyper-)locomotor activity [1]: failed to rescue; also recorded: not active | effect on epileptiform brain discharges ([2]; single treatment at MTC): failed to rescue; also recorded: not active

CCN[C@@H](C)Cc1cccc(C(F)(F)F)c1 [(+)-FFA]
antiepileptic activity in the model (overall) [3]: more consistent and concentration-dependent; also recorded: significant antiepileptic effects | EC50 (dopamine (DA) release): > 10000 nM | EC50 [5]: 302 ± 20 nM | Ki (dopamine (DA) uptake): > 20000 nM | Ki [7]: 1290 ± 52 nM | Kact values for 5-HT2 receptor subtypes, 5-HT2B (5-HT2B): 379 ± 70 nM | Kact values for 5-HT2 receptor subtypes, 5-HT2C (5-HT2C): 362 ± 64 nM

CCN[C@H](C)Cc1cccc(C(F)(F)F)c1 [(−)-FFA]
antiepileptic activity in the model (overall) [3]: significant antiepileptic effects | EC50 (dopamine (DA) release): > 10000 nM | EC50 [5]: > 10000 nM | Ki (dopamine (DA) uptake): > 20000 nM | Ki [7]: 7190 ± 559 nM | Kact values for 5-HT2 receptor subtypes, 5-HT2B (5-HT2B): 1248 ± 252 nM | Kact values for 5-HT2 receptor subtypes, 5-HT2C (5-HT2C): 360 ± 91 nM

Nc1nnc(-c2cccc(Cl)c2Cl)c(N)n1 [LTG, lamotrigine]
maximum tolerated concentration (MTC) (WT zebrafish larvae): 100 µM | effect on epileptiform (hyper-)locomotor activity [1]: no inhibitory effects | effect on epileptiform brain discharges ([2]; single treatment at MTC): no inhibitory effects

CC[C@@H](C(N)=O)N1CCCC1=O [LEV, levetiracetam]
maximum tolerated concentration (MTC) (WT zebrafish larvae): 10000 µM | effect on epileptiform (hyper-)locomotor activity [1]: failed to rescue | effect on epileptiform brain discharges ([2]; single treatment at MTC): failed to rescue | antiepileptic activity in the model (overall) [3]: failed to suppress

O=C1NC(=O)C(c2ccccc2)(c2ccccc2)N1 [PHT, Phenytoin]
maximum tolerated concentration (MTC) (WT zebrafish larvae): 100 µM | effect on epileptiform (hyper-)locomotor activity [1]: no inhibitory effects | effect on epileptiform brain discharges ([2]; single treatment at MTC): no inhibitory effects
